In patent US20040009904A1, “APL immunoreactive peptides, conjugates thereof and methods of treatment for aPL antibody-mediated pathologies” (priority 1995, published 2004):
Ends that are not written are not given here. ATU = not defined here

Tests used:
[1] = target: ACA-6501; test: Competitive binding peptide ACA ELISA, cardiolipin/β2-GPI-coated plates; parameters: species or system human; details: Optimization of Peptide 3G3; inf = no 50% inhibition
Experimental: A variation of this assay uses microtitration plates coated with human β2-glycoprotein I/cardiolipin (β2-GPI/CL) instead of tetravalent peptide and tests the ability of monomeric peptides to block the binding of aPL antibody to the epitope(s) on β2-GPI/CL. In this assay, IgG-depleted human serum at an optimized concentration is used as a source of β2-GPI. The monomeric peptides at several concentrations are incubated with an optimized concentration of aPL antibody in a manner analogous to the assay which employs tetravalent peptide as a plate substrate. Following the incubation of aPL/peptide in (β2-GPI/CL) plates, antibody binding and the peptide concentration required for 50% inhibition is determined at half-maximal absorbance as in the tetravalent assay.
Peptide sequences for all five peptides immediately follow the table. All were tested using the competitive binding peptide ACA ELISA using CL/β2-GPI plates as described herein.
(B) Immulon I® 96-well, flat-bottom, polystyrene microtitration plates (Dynatech Laboratories, Inc., Chantilly, Va.) were coated with 30 μL/well of cardiolipin (CL, 50 μg; Sigma Chemical Co., St. Louis, Mo.) in ethanol. Two control wells received 30 μL ethanol only. After overnight evaporation at 4° C., each well was blocked with 200 μL of 5% (w/v) fish gelatin in PBS for 2 hours at RT.
During this incubation, variable amounts of each of six peptides were mixed with 22 μL ACA-6501 serum diluted with 3% fish gelatin in 1:1 TBS/PBS (final dilution of 1:400) in a final volume of 220 μL using Eppendorf microcentrifuge tubes. Specifically, in tube #1 were mixed 181.3 μL of 3% fish gelatin in TBS-PBS, 16.7 μL of peptide stock solution plus 22 μL of ACA-6501 serum diluted 40 times in 3% fish gelatin/TBS-PBS. Stock solutions ranged from 450-800 μg/mL for peptides #951 (diserine non-cyclized negative control), #952 (a lot of LJP 690), and thioethers CCTE-3G3, CHTE-3G3, HCTE-3G3 and HHTE-3G3. To tube #2 the following were added: 148 μL fish gelatin/TBS-PBS, […] of peptide stock solution, plus 22 μL of 40 times diluted ACA-6501 serum. Tube #3 contained 48 μL fish gelatin/TBS-PBS, […] of peptide stock solution, plus 22 μL of 40 times diluted ACA-6501 serum. The control tube #4 received 396 μL fish gelatin/TBS-PBS and 44 μL of 40 times diluted ACA-6501 serum (no peptide). Each of the tubes incubated for approximately 1 hour at RT.
The CL/β2-GPI microtitration plate was washed 5 times with TBS and 100 μL aliquots in duplicate from Eppendorf tubes #1, 2, 3, and 4 containing the antibody-peptide (or no peptide mixtures) were added to the wells. A volume of 100 μL from tube #4 was added to the duplicate control wells containing no cardiolipin. The microtitration plate was incubated for 1 hour at RT with agitation at 40 rpm in an orbital shaker (American Scientific, Rotator V), washed 5 times with TBS and then 100 μL of 1:1000 goat anti-human IgG alkaline phosphatase conjugate (Zymed, Cat No. 62-8422) in 0.5% (w/v) BSA-TBS was added. Following incubation for 1 hour at RT, the microtitration plate was again washed 5 times with TBS and the colorimetric enzyme detection developed by adding 100 μL of PMPP solution (7.8 g phenolphthalein monophosphate plus 69.5 g of 2-amino-2-methyl-1-propanol in 100 mL water stock solution diluted 1:26 with water). After 21 minutes, the reaction was stopped by adding 50 μL of 0.2 M Na2HPO4 (Mallinckrodt) to each well. Absorbance at 550 nm was read in a microplate reader (Bio-Tek Instruments, Model EL 311). The amount of peptide that inhibited ACA-6501 binding by 50%, the IC50, was calculated from the graph at the intersection of half-maximal absorbance with amount of peptide added.

[2] = tested on: ACA; test: Structure Activity Relationship of the Crossreactive ACA Epitope (relative activity); type: binding, human; details: LJP 688 = 100
From the text: Peptide 6641/3G3 (LJP 688) was subjected to a number of analyses. The analyses included truncation at both the N-terminus and the C-terminus, disulfide substitution, substitution of alanine and glycine for amino acids in positions 2 through 8, substitution of branched aliphatic amino acids in positions 2, 4, 5 and 8, substitution of amino acids affecting conformation of the peptide, including substitution of α-methyl amino acids, substitution of basic amino acids in position 7, substitution of D-amino acids in positions 2 through 9, and the substitution of N-α-methyl amino acids in positions 1 through 9.

Row | Substance | with ACA 6501 150 ug/mL [1] | Relative Activity [2]
1 | C L G V L G K L C ATU-Y (CLGVLGKLC; C-terminal ATU-Y extension) | 300 µg/mL | –
2 | C L G V aiB G K L C | inf. | –
3 | CLGGLGKLC [C L G G L G K L C] | inf. | –
4 | CLGVAGKLC [C L G V A G K L C] | inf | ∞
5 | CLGVGGKLC [C L G V G G K L C] | inf | –
6 | CLGVLCKLC [C L G V L C K L C] | 500 µg/mL | –
7 | CLGVLGALC [C L G V L G A L C] | inf | ∞
8 | CLGVLGGLC [C L G V L G G L C] | inf | –
9 | CLGVLPGKLC | – | 1.4
10 | CLGVPGKLC [C L G V P G K L C] | Inf. | –
11 | SLGVLGKLS [diserine non-cyclized negative control, reference compound] | – | ∞
12 | Y ATU C L G V L G K L C ({Tyr-ATU}-CLGVLGKLC; cysteine pairing not given here; reading uncertain) | 170 µg/mL | –
